Source: patent US11952365B2, “Anti-viral compounds” (Aligos Therapeutics, Inc., priority 2020, dated 2024)
Like-named read-outs stand apart in the source and are kept apart here.

Experiments:
3CLpro = 3CLpro (Severe acute respiratory syndrome coronavirus 2, UniProt P0DTD1); assay: SARS-CoV-2 3CLpro protease assay (duplex, SAMDI-MS); assay type: biochemical; parameters: For the duplex assay, 3CLpro and HRV3C was added; conditions: 3CLpro, 30 mins preincubation, read-out: SARS-Cov-2 IC50
human cathepsin L = target: T1, human cathepsin L (Homo sapiens, UniProt P07711); assay: cathepsin L assay; assay type: biochemical; conditions: 10 pM human cathepsin L, Z-FR-AMC 2 μM, class symbols
T1 construct: purchased R&D Systems
Method: For the cathepsin L assay, 10 pM of human cathepsin L (R&D Systems; Minneapolis, MN) was preincubated for 30 mins with test compounds. Reactions were initiated by the addition of a peptide substrate Z-FR-AMC (final concentration 2 μM, Anaspec; Fremont, CA). Fluorescence was measured at 2-minute intervals for 30 mins using a 355/460 excitation/emission filter module on an Envision plate reader (Perkin Elmer; Waltham, MA). The IC50 values were calculated for each assay by fitting the curves using a four-parameter equation in GraphPad Prism.

in vitro [1] = conditions: human
[2] = tested on: human beta-coronavirus OC43; assay: microbe, parasite or virus in culture; assay type: cell-based; conditions: Betacoronavirus 1, OC43, HeLa, 144 h
[3] = Cytotoxicity plates without OC43 virus (cell-titer-glo); assay type: cell-based, human; conditions: human; HeLa cells without OC43 virus, class symbols
Method: The human beta-coronavirus OC43 was purchased from ATCC (Manassas, VA) and propagated using HCT-8 human colorectal epithelial cells (ATCC). HeLa human cervical epithelial cells (ATCC) were used as susceptible host cell lines and were cultured using EMEM media, supplemented with 10% fetal bovine serum (FBS), 1% (v/v) penicillin/streptomycin (P/S), 1% (v/v) HEPES and 1% (v/v) Cellgro Glutagro™ supplement (all Corning, Manassas, VA) at 37° C. For the OC43 antiviral assay, 1.5×10^4 HeLa cells per well were plated in 100 μL complete media in white 96-well plates with clear bottoms at 37° C. for up to 24 h to facilitate attachment and allow cells to recover from seeding stresses. Next day, the cell culture medium was removed. Serially diluted compounds in 100 μL assay media (EMEM, 2% FBS, 1% P/S, 1% Cellgro Glutagro™ supplement, 1% HEPES) were added to the cells and incubated for 4H at 37° C. in a humidified 5% CO2 incubator. 100 μL of OC43 virus stock was diluted to a concentration known to produce optimal cytopathic effect, inducing 80-90% reduction in cell viability. 96-well plates were incubated for 6 (HeLa) days at 33° C.; each plate contains uninfected control wells as well as virus-infected wells that were not treated with compound. Cytotoxicity plates without the addition of OC43 virus were carried out in parallel. At the end of the incubation period, 100 μL cell culture supernatant was replaced with 100 μL cell-titer-glo reagent (Promega, Madison, WI) and incubated for at least 10 min at rt prior to measuring luminescence. Luminescence was measured on a Perkin Elmer (Waltham, MA) Envision plate reader. Antiviral % inhibition was calculated as follows: [(Compound treated cells infected sample)−(no compound infected control)]/[(Uninfected control)−(no compound infected control)]*100; Using GraphPad (San Diego, CA) prism software version 8.3.1, the antiviral dose-response plot was generated as a sigmoidal fit, log(inhibitor) vs response-variable slope (four parameters) model and the EC50 was calculated which is the predicted compound concentration corresponding to a 50% inhibition of the viral cytopathic effect.

[4] = tested on: SARS-CoV-2-GHB-03021/2020; assay: SARS-CoV-2 Infection Model in Huh7 Cells; assay type: cell-based; conditions: Severe acute respiratory syndrome coronavirus 2, Huh-7, 96 h, SARS-CoV-2, day 4 p.i., MTS
HRV3C = HRV3C (Human rhinovirus 14, UniProt P03303); assay: HRV3C protease assay (duplex, SAMDI-MS); assay type: biochemical, HRV; conditions: 30 mins preincubation
Method: Protease assays were performed in 384-well low volume polypropylene microtiter plates at ambient temperature. For the duplex assay, 3CLpro and HRV3C was added using a Multidrop Combi (Thermo Scientific; Waltham, MA) and preincubated for 30 mins with small molecules. The reactions were initiated by the addition of the two peptide substrates. The reactions were incubated for 30 mins and quenched by the addition of 0.5% formic acid (final) with subsequent neutralization using 1% sodium bicarbonate (final). Internal standard peptides were added in 20 mM Hepes pH 8.0 for quantitation of the protease products. For SAMDI-MS analysis, 2 μL of each reaction mixture was transferred using a 384-channel automated liquid handler to SAMDI biochip arrays functionalized with a neutravidin-presenting self-assembled monolayer. The SAMDI arrays were incubated for 1 h in a humidified chamber to allow the specific immobilization of the biotinylated peptide substrates, cleaved products and internal standards. The samples were purified by washing the SAMDI arrays with deionized ultrafiltered water and dried with compressed air. A matrix comprising alpha-cyano cinnamic acid in 80% acetonitrile:20% aqueous ammonium citrate was applied in an automated format by dispensing 50 nL to each spot in the array. SAMDI-MS was performed using reflector-positive mode on an AB Sciex TOF-TOF 5800 System (AB Sciex, Framingham, MA) with 400 shots/spot analyzed in a random raster sampling. For data analysis, area under the curves (peaks) (AUCs) for the product and internal standard were calculated using the TOF/TOF Series Explorer (AB Sciex), and the amount of product formed was calculated using the equation (AUC product/AUC internal standard). The amount of product generated was calculated using the ratio of product area under the curve (AUC) divided by the AUC of the internal standard. Negative controls were pre-quenched with 0.5% formic acid final. Assay robustness was determined by Z-Factor. The IC50s were determined by fitting the curves using a four-parameter equation in Graphpad Prism 8.

in vitro [5] = conditions: African green monkey, VeroE6 + CP (CC50), Vero E6-eGFP cells with CP-100356, absence of virus, MTS
[6] = tested on: SARS-CoV-2-GHB-03021/2020; assay: microbe, parasite or virus in culture; assay type: cell-based; conditions: Severe acute respiratory syndrome coronavirus 2, Vero C1008, 96 h; read-out: VeroE6 + CP (EC50)
[7] = OC43 in HeLa cells, 6 days at 33° C., class symbols, read-out: EC50
[8] = HRV3C, class symbols, read-out: HRV IC50
[9] = OC43 in HeLa cells, 6 days at 33° C., bound, read-out: EC50

| Structure (SMILES) | IC50 (3CLpro; class symbols) | IC50 (human cathepsin L) | CC50 (in vitro [1]) | EC50 [2, 7] | CC50 at 6 days [3] | EC50 ([4]; class symbols) | IC50 (HRV3C; [8]) | EC50 [2, 9] | EC50 ([4]; numeric bounds) | IC50 (HRV3C; HRV IC50, HRV3C, class symbols) | CC50 (in vitro [5]; numeric bounds) | EC50 [6] | CC50 (in vitro [5]; class symbols) | IC50 (3CLpro; bound) | EC50 [2] | IC50 (HRV3C; HRV IC50, HRV3C, bound) |
| --- | --- | --- | --- | --- | --- | --- | --- | --- | --- | --- | --- | --- | --- | --- | --- | --- |
| COc1cccc2[nH]c(C(=O)N3C[C@@H]4CCC[C@@H]4[C@H]3C(=O)N[C@@H](C[C@@H]3CCNC3=O)C(=O)CO)nc12 [Compound 37] | 0.02 to 0.2 µM | ≥ 10 µM | > 100 µM | 1 to 10 µM | > 10 µM | 1 to 10 µM | 20 to 100 µM |  |  |  |  |  |  |  |  |  |
| O=C(NCc1ccccc1)C(=O)C(C[C@@H]1CCCNC1=O)NC(=O)[C@@H]1[C@H]2CCC[C@H]2CN1C(=O)c1cc2ccccc2[nH]1 (stereo partly drawn) [Compound 17, (1S,3aR,6aS)—N-(4-(benzylamino)-3,4-dioxo-1-((S)-2-oxopiperidin-3-yl)butan-2-yl)-2-(1H-indole-2-carbonyl)octahydrocyclopenta[c]pyrrole-1-carboxamide] | 0.02 to 0.2 µM | 1 to 10 µM | > 10 µM | 0.1 to 1 µM | > 10 µM | 1 to 10 µM | 2 to 20 µM |  |  |  |  |  |  |  |  |  |
| COc1cccc2[nH]c(C(=O)N3C[C@H]4[C@@H]([C@H]3C(=O)N[C@@H](C[C@@H]3CCCNC3=O)C(=O)C(=O)NC3CC3)C4(C)C)cc12 [Compound 57, (3S)—N-cyclopropyl-3-{[(1R,2S,5S)-3-(4-methoxy-1H-indole-2-carbonyl)-6,6-dimethyl-3-azabicyclo[3.1.0]hexan-2-yl]formamido}-2-oxo-4-[(3S)-2-oxopiperidin-3-yl]butanamide] | 0.02 to 0.2 µM | ≥ 10 µM | > 100 µM | 0.1 to 1 µM | > 10 µM | 1 to 10 µM | 0.2 to 2 µM |  |  |  |  |  |  |  |  |  |
| COc1cccc2[nH]c(C(=O)N3Cc4ccccc4C[C@H]3C(=O)N[C@@H](C[C@@H]3CCNC3=O)C(=O)C(=O)NC3CC3)cc12 [Compound 97, (S)—N—((S)-4-(cyclopropylamino)-3,4-dioxo-1-((S)-2-oxopyrrolidin-3-yl)butan-2-yl)-2-(4-methoxy-1H-indole-2-carbonyl)-1,2,3,4-tetrahydroisoquinoline-3-carboxamide] | 0.2 to 2 µM | ≥ 10 µM | > 100 µM |  | > 10 µM |  |  | > 10 µM | > 100 µM | 0.02 to 0.2 µM |  |  |  |  |  |  |
| O=C1NCC[C@H]1C[C@H](NC(=O)[C@@H]1[C@H]2CCC[C@H]2CN1C(=O)c1cc2c(=O)[nH]ccc2[nH]1)C(=O)CO [Compound 76, (1S,3aR,6aS)—N-[(2S)-4-hydroxy-3-oxo-1-[(3S)-2-oxopyrrolidin-3-yl]butan-2-yl]-2-{4-oxo-1H,5H-pyrrolo[3,2-c]pyridine-2-carbonyl}-hexahydro-1H-cyclopenta[c]pyrrole-1-carboxamide] | 0.02 to 0.2 µM | ≥ 10 µM |  |  | > 10 µM |  |  | > 10 µM |  | 0.2 to 2 µM | > 100 µM | 10 to 100 µM |  |  |  |  |
| CC1(C)C[C@@H](C(=O)NC(C[C@@H]2CCNC2=O)C(=O)C(=O)NCc2ccccc2)N(C(=O)c2cc3ccccc3[nH]2)C1 (stereo partly shown) [Compound 11] | 0.2 to 2 µM | < 0.1 µM |  | 1 to 10 µM | > 10 µM |  | 2 to 20 µM |  |  |  | > 100 µM | 10 to 100 µM |  |  |  |  |
| CC1(C)[C@@H]2[C@@H](C(=O)NC(C[C@@H]3CCNC3=O)C(=O)C(=O)NCc3ccccc3)N(C(=O)c3cc4ccccc4[nH]3)C[C@@H]21 (stereo partly drawn) [Compound 4, N-benzyl-3-[[(1R,2S,5S)-3-(1H-indole-2-carbonyl)-6,6-dimethyl-3-azabicyclo[3.1.0]hexan-2-yl]formamido]-2-oxo-4-[(3S)-2-oxopyrrolidin-3-yl]butanamide] | 0.2 to 2 µM | 0.1 to 1 µM |  | 1 to 10 µM | > 10 µM |  | 2 to 20 µM |  |  |  | > 100 µM | 1 to 10 µM |  |  |  |  |
| COc1cccc2[nH]c(C(=O)N3C[C@@H]4CCC[C@@H]4[C@H]3C(=O)N[C@@H](C[C@@H]3CCNC3=O)C(=O)c3cnc[nH]3)cc12 [Compound 74, (1S,3aR,6aS)—N-[(2S)-1-(3H-imidazol-4-yl)-1-oxo-3-[(3S)-2-oxopyrrolidin-3-yl]propan-2-yl]-2-(4-methoxy-1H-indole-2-carbonyl)-hexahydro-1H-cyclopenta[c]pyrrole-1-carboxamide] |  | ≥ 10 µM |  |  | > 10 µM |  |  |  |  |  |  | 10 to 100 µM | > 10 µM | > 10 µM | > 10 µM | > 10 µM |
| O=C1NCC[C@H]1C[C@H](NC(=O)[C@@H]1[C@H]2CCC[C@H]2CN1C(=O)c1cc2ncccc2[nH]1)C(=O)CO [Compound 78, (1S,3aR,6aS)—N—((S)-4-hydroxy-3-oxo-1-((S)-2-oxopyrrolidin-3-yl)butan-2-yl)-2-(1H-pyrrolo[3,2-b]pyridine-2-carbonyl)octahydrocyclopenta[c]pyrrole-1-carboxamide] | 0.02 to 0.2 µM | ≥ 10 µM |  | 1 to 10 µM | > 10 µM |  | 2 to 20 µM |  |  |  | > 100 µM | 10 to 100 µM |  |  |  |  |
| COc1cccc2[nH]c(C(=O)N3C[C@@H]4CCC[C@@H]4[C@H]3C(=O)N[C@H](C=O)C[C@@H]3CCNC3=O)cc12 [Compound 14A, (1S,3aR,6aS)-2-(4-methoxy-1H-indole-2-carbonyl)-N-[(2S)-1-oxo-3-[(3S)-2-oxopyrrolidin-3-yl]propan-2-yl]-hexahydro-1H-cyclopenta[c]pyrrole-1-carboxamide] | 0.02 to 0.2 µM | ≥ 10 µM |  | 1 to 10 µM | > 10 µM |  | 0.2 to 2 µM |  |  |  | > 100 µM | 10 to 100 µM |  |  |  |  |
